“Also recorded” adds a separate entry of the source.
Key:
[1] = test system: HT-29 colorectal adenocarcinoma cell line; assay: BioMAP Oncology CRC panel (StroHT29 and VascHT29 systems); assay type: cell-based, human
Source text: The BioMAP® oncology system used in this Example is a coculture of primary human immune cells with primary tissue cells in the presence of the Colorectal Cancer (CRC) cells. In particular, The BioMAP® Oncology CRC panel models the interactions between the immune-stromal (fibroblasts) and immune-vascular (endothelial cells) environments in the context of colorectal cancer (HT-29 colorectal adenocarcinoma cell line). The interactions between tumor cells, stimulated immune cells (peripheral blood mononuclear cells [PBMC]), and the host stromal network (human neonatal dermal fibroblasts [HDFn]) are captured in the StroHT29 system. In parallel, the VascHT29 system captures the interactions between tumor cells, activated immune cells and the vascular tissue (human umbilical vein endothelial cells [HUVEC]). The biomarkers selected for the BioMAP® Colorectal Cancer (CRC) panel inform on activities related to inflammation, immune-function, tissue remodeling and metastasis in the context of a host tumor-microenvironment.
A signature BioMAP® profile that is reflective of the changes in protein biomarker readouts within an individual system is generated for each test agent. Biomarker readouts selected for therapeutic and biological relevance are predictive for disease outcomes or specific drug effects, and have been validated using agents with known clinical efficacy. Each readout is measured quantitatively by immune-based receptors, cytokines, chemokines, matrix molecules and enzymes. In total, the 41 biomarker readouts in the CRC panel capture the biological changes that occur within the physiological context of each particular BioMAP® system.
The BioMAP® CRC panel allows a focused in vitro evaluation of the impact of an agent in a model system that includes the hierarchical signaling networks that exist between interacting pathways and cells in a disease relevant setting. To represent the changes that are occurring in these complex systems, biomarker readouts with the ability to integrate and distinguish changes in different regulatory networks have been selected.
Data analysis of the results was performed as described in detail above in Example 3.1. Briefly, biomarker activities are annotated when at least one concentration of the test agent is outside of the significance envelope with an effect size >20% compared to the vehicle control (|log 10 ratio|>0.1) and a p-value <0.01. Cytotoxic conditions are noted when total protein levels decrease by more than 50% (log 10 ratio of SRB <−0.3). Biomarker key activities are described as modulated if these activities increase in some systems, but decrease in others.

[2] = test system: human primary endothelial cells; assay: BioMAP proliferation readout, endothelial cells; assay type: cell-based; settings: 100 μM, 33 μM, 11 μM
Source text: (§1) The X-axis lists the quantitative protein-based biomarker readouts measured in each system. The Y-axis represents a log-transformed ratio of the biomarker readouts for the drug-treated sample (n=1) over vehicle controls (n≥6). The grey region around the Y-axis represents the 95% significance envelope generated from historical vehicle controls. Biomarker activities are annotated when two or more consecutive concentrations change in the same direction relative to vehicle controls, are outside of the significance envelope, and have at least one concentration with an effect size >20% (|log 10 ratio|>0.1). Biomarker key activities are described as modulated if these activities increase in some systems, but decrease in others. […] As summarized in Table 2 below, the compound was active with 35 annotated readouts. […]
(§2) Human primary cells in BioMAP® systems are used at early passage (passage 4 or earlier) to minimize adaptation to cell culture conditions and preserve physiological signaling responses. […] Test agents prepared in either DMSO (small molecules; final concentration ≤0.1%) or PBS (biologics) are added at the indicated concentrations 1-hr before stimulation, and remain in culture for 24-hrs or as otherwise indicated (48-hrs, MyoF system; 72-hrs, BT system (soluble readouts); 168-hrs, BT system (secreted IgG)). […]

B cells = assay: BioMAP proliferation readout, B cells; assay type: cell-based, human; settings: 100 μM, 33 μM, 11 μM
Source text: as §1, §2

[3] = 7.4 μM, 22 μM, 67 μM, Angiogenesis related activities
[4] = 7.4 μM, 22 μM, 67 μM, Immune-related activities
[5] = 7.4 μM, 22 μM, 67 μM, Inflammation related activities
[6] = 7.4 μM, 22 μM, 67 μM, Matrix remodeling activities
[7] = 7.4 μM, 22 μM, 67 μM, Tumor-related activities

Q: What does the source list for `C1=NC(c2cncc(C3CCC=N3)c2)CC1` (centres unmarked) [3,5-bis(3,4-dihydro-2H-pyrrol-2-yl)pyridine]?
A: Decreased activity: PAI-I [1, 3]: decreased; also recorded: PAI-I; Decreased activity: tPA [1, 3]: decreased and tPA; Decreased activity: uPA [1, 3]: decreased and uPA; Increased activity: sVEGF [1, 3]: increased; also recorded: SVEGF; Decreased Activity: sIL-6 [1, 4]: decreased; Decreased activity: CD40 [1, 4]: decreased and CD40; Decreased activity: CD69 [1, 4]: decreased and CD69; Decreased activity: sGranB [1, 4]: decreased; also recorded: sGranB; Decreased activity: sIFNγ [1, 4]: decreased; also recorded: SIFNG; Decreased activity: sIL-2 [1, 4]: decreased; also recorded: sIL-2; Decreased activity: sIL-10 (Table 8) / sIL-1β [1, 4]: decreased; Decreased activity: sIL-17A [1, 4]: decreased; Decreased activity: IP-10 [1, 5]: decreased; also recorded: IP-10; Decreased activity: MCP-1 [1, 5]: decreased; also recorded: MCP-1; Decreased activity: MIG [1, 5]: decreased and MIG; Decreased activity: VCAM-1 [1, 5]: decreased; also recorded: VCAM-1; Decreased activity: Collagen I [1, 6]: decreased; also recorded: Col-I; Decreased activity: Collagen III [1, 6]: decreased and Col-; Decreased activity: Collagen IV [1, 6]: decreased; also recorded: Col-IV; Decreased activity: MMP9 [1, 6]: decreased and MMP9; Decreased activity: TIMP2 [1, 6]: decreased; also recorded: TIMP2; Decreased activity: CEACAM5 [1, 7]: decreased; also recorded: CEACAM5; Decreased activity: Keratin 20 [1, 7]: decreased; cytotoxicity ([1]; at 200 μM): cytotoxic; antiproliferative effect on human primary endothelial cells [2]: antiproliferative; antiproliferative effect on B cells (B cells): antiproliferative

— patent publication US12358892B2, “Metalloenzyme inhibitors for treating cancers, Alzheimer's disease, hemochromatosis, and other disorders” (Miralogx LLC, priority 2020, dated 2025)
